Assays:
[1] = target: T1, KRas^G12S (Homo sapiens, UniProt P01116, G12S); experiment: KRas binding assay (TR-FRET tracer displacement), KRas G12S; details: single point, 10 nM compound, TR-FRET
T1 construct: Biotinylated KRas (corresponding to amino acids 1-169, produced at Accelegan Inc.); biotin (biotinylated); purchased Accelegan Inc

[2] = target: T2, KRas^Q61H (Homo sapiens, UniProt P01116, Q61H); experiment: KRas binding assay (TR-FRET tracer displacement), KRas Q61H; details: single point, 10 nM compound, TR-FRET
T2 construct: Biotinylated KRas (corresponding to amino acids 1-169, produced at Accelegan Inc.); biotin (biotinylated); purchased Accelegan Inc
T2 sequence (P01116 1-169 isoform P01116-2 Q61H): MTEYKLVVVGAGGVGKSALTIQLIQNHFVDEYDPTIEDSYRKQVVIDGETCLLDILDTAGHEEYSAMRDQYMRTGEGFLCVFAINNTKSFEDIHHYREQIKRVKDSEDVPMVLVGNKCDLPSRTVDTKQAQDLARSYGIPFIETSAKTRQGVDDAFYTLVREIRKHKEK

[3] = tested on: KRas-mediated phosphorylation of ERK in PSN1 cells; experiment: Inhibition of KRas-mediated phosphorylation of ERK (Cisbio HTRF pERK), PSN1 cells; type: cell-based; details: Homo sapiens
Outline: (§1)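 Overnight culture at 37° C./5% CO2 in RPMI containing 10% FBS, seeded 6,000 cells per well, preceded the assay. A covered 4-hour incubation at room temperature followed, then HTRF signal for phosphorylated ERK was measured.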

[4] = tested on: KRas-mediated phosphorylation of ERK in HCT116 cells; experiment: Inhibition of KRas-mediated phosphorylation of ERK (Cisbio HTRF pERK), HCT116 cells; type: cell-based; details: Homo sapiens; for IC50: HCT-116, HTRF pERK; for inhibition at 0.1 µM: HCT-116, 3 h, single point, 100 nM compound, 3 hrs
Outline: (§2)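 Signal read by HTRF (d2/Cryptate antibody pair, 2 hr room-temperature incubation on lysate). Cells: 6,000 per well, 3 hr compound exposure. Titration: 10 uM highest, 3-fold, 10 points.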

[5] = target: T3, KRas^G12R (Homo sapiens, UniProt P01116, G12R); experiment: KRas binding assay (TR-FRET tracer displacement), KRas G12R
T3 construct: Biotinylated KRas (corresponding to amino acids 1-169, produced at Accelegan Inc.); biotin (biotinylated); purchased Accelegan Inc
T3 sequence (P01116 1-169 isoform P01116-2 G12R): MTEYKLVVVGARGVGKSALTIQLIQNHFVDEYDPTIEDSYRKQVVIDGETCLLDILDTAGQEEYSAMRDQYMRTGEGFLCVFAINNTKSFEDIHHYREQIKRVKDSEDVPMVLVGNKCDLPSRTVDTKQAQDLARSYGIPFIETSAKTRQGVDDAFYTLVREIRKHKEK

[6] = tested on: KRas-mediated phosphorylation of ERK in H460 cells; experiment: Inhibition of KRas-mediated phosphorylation of ERK (Cisbio HTRF pERK), H460 cells; type: cell-based; details: Homo sapiens; for IC50: NCI-H460, HTRF pERK; for inhibition at 0.1 µM: NCI-H460, 3 h, single point, 100 nM compound, 3 hrs
Outline: (§3)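 Following a 3-hr exposure of cells to serially diluted compound (from 10 uM, 3-fold, 10 doses), cold lysis for 40 mins preceded a 2-hr room-temperature HTRF immunoassay for phosphorylated ERK.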

[7] = target: T4, KRas^G12V (Homo sapiens, UniProt P01116, G12V); experiment: KRas binding assay (TR-FRET tracer displacement), KRas G12V
T4 construct: Biotinylated KRas (corresponding to amino acids 1-169, produced at Accelegan Inc.); biotin (biotinylated); purchased Accelegan Inc
T4 sequence (P01116 1-169 isoform P01116-2 G12V): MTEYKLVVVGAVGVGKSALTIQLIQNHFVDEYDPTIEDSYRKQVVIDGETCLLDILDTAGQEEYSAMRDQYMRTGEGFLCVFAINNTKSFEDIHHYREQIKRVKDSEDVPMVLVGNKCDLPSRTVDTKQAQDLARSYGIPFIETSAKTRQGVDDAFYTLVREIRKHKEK

[8] = target: T5, KRas^WT (Homo sapiens, UniProt P01116); experiment: KRas binding assay (TR-FRET tracer displacement), KRas WT; details: single point, 10 nM compound, TR-FRET
T5 construct: Biotinylated KRas (corresponding to amino acids 1-169, produced at Accelegan Inc.); biotin (biotinylated); purchased Accelegan Inc
T5 sequence (P01116 1-169 isoform P01116-2): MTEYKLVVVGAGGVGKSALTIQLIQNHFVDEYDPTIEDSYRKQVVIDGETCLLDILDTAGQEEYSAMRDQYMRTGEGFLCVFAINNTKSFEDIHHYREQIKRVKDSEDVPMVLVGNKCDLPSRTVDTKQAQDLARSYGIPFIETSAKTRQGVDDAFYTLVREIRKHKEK

[9] = target: T6, KRas^G12A (Homo sapiens, UniProt P01116, G12A); experiment: KRas binding assay (TR-FRET tracer displacement), KRas G12A; details: single point, 10 nM compound, TR-FRET
T6 construct: Biotinylated KRas (corresponding to amino acids 1-169, produced at Accelegan Inc.); biotin (biotinylated); purchased Accelegan Inc
T6 sequence (P01116 1-169 isoform P01116-2 G12A): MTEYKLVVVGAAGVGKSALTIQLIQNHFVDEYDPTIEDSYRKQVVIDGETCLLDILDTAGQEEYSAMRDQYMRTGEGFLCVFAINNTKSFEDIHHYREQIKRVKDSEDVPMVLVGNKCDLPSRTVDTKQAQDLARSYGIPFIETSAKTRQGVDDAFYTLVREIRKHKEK

[10] = target: T7, KRas^G12D (Homo sapiens, UniProt P01116, G12D); experiment: KRas binding assay (TR-FRET tracer displacement), KRas G12D
T7 construct: Biotinylated KRas (corresponding to amino acids 1-169, produced at Accelegan Inc.); biotin (biotinylated); purchased Accelegan Inc
T7 sequence (P01116 1-169 isoform P01116-2 G12D): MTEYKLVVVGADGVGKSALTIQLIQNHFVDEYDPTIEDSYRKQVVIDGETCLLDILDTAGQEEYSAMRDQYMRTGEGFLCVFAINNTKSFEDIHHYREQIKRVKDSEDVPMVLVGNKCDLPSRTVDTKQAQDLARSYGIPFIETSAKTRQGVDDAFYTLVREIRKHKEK

[11] = tested on: KRas-mediated phosphorylation of ERK in A549 cells; experiment: Inhibition of KRas-mediated phosphorylation of ERK (Cisbio HTRF pERK), A549 cells; type: cell-based; details: Homo sapiens, HTRF pERK
Outline: as §2

[12] = target: T8, KRas^G12C (Homo sapiens, UniProt P01116, G12C); experiment: KRas binding assay (TR-FRET tracer displacement), KRas G12C; details: single point, 10 nM compound, TR-FRET
T8 construct: Biotinylated KRas (corresponding to amino acids 1-169, produced at Accelegan Inc.); biotin (biotinylated); purchased Accelegan Inc
T8 sequence (P01116 1-169 isoform P01116-2 G12C): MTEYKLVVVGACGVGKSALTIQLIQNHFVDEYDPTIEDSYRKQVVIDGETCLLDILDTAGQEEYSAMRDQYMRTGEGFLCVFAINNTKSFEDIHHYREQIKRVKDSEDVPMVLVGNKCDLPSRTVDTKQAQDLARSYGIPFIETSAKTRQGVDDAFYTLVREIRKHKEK

[13] = tested on: KRas-mediated phosphorylation of ERK in H727 cells; experiment: Inhibition of KRas-mediated phosphorylation of ERK (Cisbio HTRF pERK), H727 cells; type: cell-based; details: Homo sapiens, NCI-H727, H727 cells; HTRF pERK
Outline: as §3

[14] = tested on: KRas-mediated phosphorylation of ERK in MKN1 cells; experiment: Inhibition of KRas-mediated phosphorylation of ERK (Cisbio HTRF pERK), MKN1 cells; type: cell-based; details: Homo sapiens, MKN-1
Outline: as §1

[15] = target: T9, KRas^G13D (Homo sapiens, UniProt P01116, G13D); experiment: KRas binding assay (TR-FRET tracer displacement), KRas G13D; details: single point, 10 nM compound, TR-FRET
T9 construct: Biotinylated KRas (corresponding to amino acids 1-169, produced at Accelegan Inc.); biotin (biotinylated); purchased Accelegan Inc
T9 sequence (P01116 1-169 isoform P01116-2 G13D): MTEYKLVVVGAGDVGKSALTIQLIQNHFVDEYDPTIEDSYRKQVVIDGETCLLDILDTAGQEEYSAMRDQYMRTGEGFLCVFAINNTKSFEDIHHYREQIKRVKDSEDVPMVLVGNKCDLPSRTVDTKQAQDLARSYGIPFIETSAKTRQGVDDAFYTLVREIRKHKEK

[16] = tested on: KRas-mediated phosphorylation of ERK in AsPC-1 cells; experiment: Inhibition of KRas-mediated phosphorylation of ERK (Cisbio HTRF pERK), AsPC-1 cells; type: cell-based; details: Homo sapiens, ASPC1, AsPC-1 cells; HTRF pERK
Outline: as §3

T1 sequence (P01116 1-169 isoform P01116-2 G12S): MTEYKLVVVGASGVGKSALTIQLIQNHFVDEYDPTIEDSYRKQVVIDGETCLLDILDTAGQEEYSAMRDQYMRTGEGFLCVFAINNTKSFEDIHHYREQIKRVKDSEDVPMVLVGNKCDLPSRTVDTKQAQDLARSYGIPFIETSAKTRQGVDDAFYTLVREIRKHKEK

Compound	inhibition at 0.01 µM [1] [%]	inhibition at 0.01 µM [2] [%]	IC50 [3] [nM]	IC50 [4] [nM]	IC50 [5] [nM]	IC50 [6] [nM]	IC50 [7] [nM]	inhibition at 0.01 µM [8] [%]	inhibition at 0.01 µM [9] [%]	IC50 [10] [nM]	IC50 [11] [nM]	inhibition at 0.01 µM [12] [%]	IC50 [13] [nM]	IC50 [14] [nM]	inhibition at 0.01 µM [15] [%]	IC50 [16] [nM]	inhibition at 0.1 µM [4] [%]	inhibition at 0.1 µM [6] [%]
CCc1c(F)ccc2cc(O)cc(-c3ncc4c(N5CCC[C@@](C)(O)C5)nc(OC[C@@]56CCCN5[C@H](COC(=O)NC(C)C)CC6)nc4c3F)c12 [Example 718, ((3S,7aS)-7a-(((7-(8-ethyl-7-fluoro-3-hydroxynaphthalen-1-yl)-8-fluoro-4-((R)-3-hydroxy-3-methylpiperidin-1-yl)pyrido[4,3-d]pyrimidin-2-yl)oxy)methyl)hexahydro-1H-pyrrolizin-3-yl)methyl isopropylcarbamate]	94	96	1100	58	< 2	29	< 2	94	94	< 2	37	96	43	2	95	17		
CCc1c(F)ccc2cc(O)cc(-c3ncc4c(N5CCOCC(C)(O)C5)nc(OCC56CCCN5[C@H](COC(=O)N(C)C)CC6)nc4c3F)c12 (stereo in doubt) [Example 710, ((3S,7aR)-7a-(((7-(8-ethyl-7-fluoro-3-hydroxynaphthalen-1-yl)-8-fluoro-4-(6-hydroxy-6-methyl-1,4-oxazepan-4-yl)pyrido[4,3-d]pyrimidin-2-yl)oxy)methyl)hexahydro-1H-pyrrolizin-3-yl)methyl dimethylcarbamate]	83	88	2610		4		3	80	74	2	47	88	49	25	86	22	37	66
CCc1cccc2cc3[nH]ncc3c(-c3ncc4c(N5C[C@@H]6C[C@H](C5)[C@H](O)C6)nc(OC[C@@]56CCCN5C[C@H](F)C6)nc4c3F)c12 [Example 767, (1R,5R,6R)-3-(7-(5-ethyl-1H-benzo[f]indazol-4-yl)-8-fluoro-2-(((2R,7aS)-2-fluorohexahydro-1H-pyrrolizin-7a-yl)methoxy)pyrido[4,3-d]pyrimidin-4-yl)-3-azabicyclo[3.2.1]octan-6-ol]	66	48	> 10000	216	3	64	5	48	54	17	76	58	87	32	55	193		
CCc1c(F)ccc2cc(O)cc(-c3ncc4c(N5CCC[C@@](C)(O)C5)nc(OC[C@@]56CCCN5[C@H](COC(=O)N5CCCCC5)CC6)nc4c3F)c12 [Example 721, ((3S,7aS)-7a-(((7-(8-ethyl-7-fluoro-3-hydroxynaphthalen-1-yl)-8-fluoro-4-((R)-3-hydroxy-3-methylpiperidin-1-yl)pyrido[4,3-d]pyrimidin-2-yl)oxy)methyl)hexahydro-1H-pyrrolizin-3-yl)methyl piperidine-1-carboxylate]	90	92	956	48	< 2	12	< 2	89	90	< 2	19	92	28	2	93	15		
CCc1c(F)ccc2cc(O)cc(-c3ncc4c(N5CCC[C@@](C)(O)C5)nc(OC[C@@]56CCCN5[C@H](COC(=O)N5CCCC5)CC6)nc4c3F)c12 [Example 719, ((3S,7aS)-7a-(((7-(8-ethyl-7-fluoro-3-hydroxynaphthalen-1-yl)-8-fluoro-4-((R)-3-hydroxy-3-methylpiperidin-1-yl)pyrido[4,3-d]pyrimidin-2-yl)oxy)methyl)hexahydro-1H-pyrrolizin-3-yl)methyl pyrrolidine-1-carboxylate]	97	98	518	23	< 2	8	< 2	96	95	< 2	7	97	23	1	98	7		
CCNC(=O)OC[C@@H]1CC[C@]2(COc3nc(N4CCC[C@@](C)(O)C4)c4cnc(-c5cc(O)cc6ccc(F)c(CC)c56)c(F)c4n3)CCCN12 [Example 717, ((3S,7aS)-7a-(((7-(8-ethyl-7-fluoro-3-hydroxynaphthalen-1-yl)-8-fluoro-4-((R)-3-hydroxy-3-methylpiperidin-1-yl)pyrido[4,3-d]pyrimidin-2-yl)oxy)methyl)hexahydro-1H-pyrrolizin-3-yl)methyl ethylcarbamate]	92	92	1820	84	< 2	30	< 2	92	90	< 2	47	93	44	3	94	22		
CCc1c(F)ccc2cc(O)cc(-c3ncc4c(N5CCC(O)C(F)(F)CC5)nc(OC[C@@]56CCCN5C[C@H](F)C6)nc4c3F)c12 (stereo partly drawn) [Example 586, 1-(7-(8-ethyl-7-fluoro-3-hydroxynaphthalen-1-yl)-8-fluoro-2-(((2R,7aS)-2-fluorotetrahydro-1H-pyrrolizin-7a(5H)-yl)methoxy)pyrido[4,3-d]pyrimidin-4-yl)-5,5-difluoroazepan-4-ol]	93	90	3770		4		3	91	91	6	65	93	85	25	93	94	42	56
CCc1c(F)ccc2cc(O)cc(-c3ncc4c(N5CCCC6(CC(O)C6)C5)nc(OCC5(CN(C)C)CC5)nc4c3F)c12 (centres unmarked) [Example 698, 6-(2-((1-((dimethylamino)methyl)cyclopropyl)methoxy)-7-(8-ethyl-7-fluoro-3-hydroxynaphthalen-1-yl)-8-fluoropyrido[4,3-d]pyrimidin-4-yl)-6-azaspiro[3.5]nonan-2-ol]	86	88	4150	188	< 2	72	< 2	82	77	2	141	91	68	17	84	87		
